The values below come from patent US5932574A, “Quinazoline derivatives” (Zeneca Limited, priority 1995, dated 1999).

The test system of assay [1] is human vulval epidermoid carcinoma cell line A-431. Nature of the assay: Inhibition of growth of A-431 xenografts in athymic nude mice, Test (c). Format: in vivo, human xenograft in athymic nude mice (strain ONU:Alpk). The note with it: daily dose of 50 mg/kg, usually oral, relative to untreated controls. On the procedure:
(c) An in-vivo assay in a group of athymic nude mice (strain ONU:Alpk) which determines the ability of a test compound (usually administered orally as a ball-milled suspension in 0.5% polysorbate) to inhibit the growth of xenografts of the human vulval epidermoid carcinoma cell line A-431. A-431 cells were maintained in culture in DMEM supplemented with 5% FCS and 2 mM glutamine. Freshly cultured cells were harvested by trypsinization and injected subcutaneously (10 million cells/0.1 ml/mouse) into both flanks of a number of donor nude mice. When sufficient tumour material was available (after approximately 9 to 14 days), fragments of tumour tissue were transplanted in the flanks of recipient nude mice (test day 0). Generally, on the seventh day after transplantation (test day 7) groups of 7 to 10 mice with similar-sized tumours were selected and dosing of the test compound was commenced. Once daily dosing of test compound was continued for a total of 13 days (test days 7 to 19 inclusive). In some studies the dosing of the test compound was continued beyond test day 19, for example to test day 26. In each case, on the following test day the animals were killed and the final tumour volume was calculated from measurements of the length and width of the tumours. Results were calculated as a percentage inhibition of tumour volume relative to untreated controls.

The test system of assay [2] is human naso-pharyngeal cancer cell line KB. Nature of the assay: Inhibition of EGF-stimulated growth of human naso-pharyngeal cancer cell line KB, Test (b). It is filed as cell-based. The settings on record: 72 h, EGF (10 ng/ml), 3 days, approximate. Here is the method:
(b) An in vitro assay which determines the ability of a test compound to inhibit the EGF-stimulated growth of the human naso-pharyngeal cancer cell line KB. […] Cell growth was determined after incubation for 3 days by the extent of metabolism of MTT tetrazolium dye to furnish a bluish colour. Cell growth was then determined in the presence of EGF (10 ng/ml) or in the presence of EGF (10 ng/ml) and a test compound at a range of concentrations. An IC50 value could then be calculated.

Assay [3] addresses T1, EGF receptor tyrosine kinase (Homo sapiens, UniProt P00533).
T1 construct: Receptor tyrosine kinase was obtained in partially purified form from A-431 cells (derived from human vulval carcinoma); endogenous in cells; host or cells: A-431 cells (Triton X-100 solubilised membrane fraction)
Nature of the assay: Inhibition of EGF receptor tyrosine kinase in vitro, Test (a). It is filed as biochemical. The settings on record: approximate. On the procedure: (a) An in vitro assay which determines the ability of a test compound to inhibit the enzyme EGF receptor tyrosine kinase. Receptor tyrosine kinase was obtained in partially purified form from A-431 cells (derived from human vulval carcinoma) by the procedures described below which are related to those described by Carpenter et al., J. Biol. Chem., 1979, 254, 4884, Cohen et al., J. Biol. Chem., 1982, 257, 1523 and by Braun et al., J. Biol. Chem., 1984, 259, 2051.
A-431 cells were grown to confluence using Dulbecco's modified Eagle's medium (DMEM) containing 5% fetal calf serum (FCS). The obtained cells were homogenised in a hypotonic borate/EDTA buffer at pH 10.1. The homogenate was centrifuged at 400 g for 10 minutes at 0-4° C. The supernatant was centrifuged at 25,000 g for 30 minutes at 0-4° C. […]
The test compound/EGF mixture solution (5 μl) was added to the test enzyme solution (10 μl) and the mixture was incubated at 0-4° C. for 30 minutes. […] Radioactivity present in the filter paper was measured using a liquid scintillation counter (Sequence A). […]
Receptor tyrosine kinase inhibition was calculated as follows: [formula]
The extent of inhibition was then determined at a range of concentrations of test compound to give an IC50 value.

For assay [4], the system named is another carcinoma which does not express EGF receptor tyrosine kinase. The note with it: in words; Toi et al., 1990; cited from earlier work.
In assay [5] the test system is human mammary carcinoma which expresses EGF receptor tyrosine kinase. The settings on record: in words; athymic nude mice; Toi et al., 1990; cited from earlier work.

SMILES strings stand for the structures.

T1 sequence (P00533 25-1210): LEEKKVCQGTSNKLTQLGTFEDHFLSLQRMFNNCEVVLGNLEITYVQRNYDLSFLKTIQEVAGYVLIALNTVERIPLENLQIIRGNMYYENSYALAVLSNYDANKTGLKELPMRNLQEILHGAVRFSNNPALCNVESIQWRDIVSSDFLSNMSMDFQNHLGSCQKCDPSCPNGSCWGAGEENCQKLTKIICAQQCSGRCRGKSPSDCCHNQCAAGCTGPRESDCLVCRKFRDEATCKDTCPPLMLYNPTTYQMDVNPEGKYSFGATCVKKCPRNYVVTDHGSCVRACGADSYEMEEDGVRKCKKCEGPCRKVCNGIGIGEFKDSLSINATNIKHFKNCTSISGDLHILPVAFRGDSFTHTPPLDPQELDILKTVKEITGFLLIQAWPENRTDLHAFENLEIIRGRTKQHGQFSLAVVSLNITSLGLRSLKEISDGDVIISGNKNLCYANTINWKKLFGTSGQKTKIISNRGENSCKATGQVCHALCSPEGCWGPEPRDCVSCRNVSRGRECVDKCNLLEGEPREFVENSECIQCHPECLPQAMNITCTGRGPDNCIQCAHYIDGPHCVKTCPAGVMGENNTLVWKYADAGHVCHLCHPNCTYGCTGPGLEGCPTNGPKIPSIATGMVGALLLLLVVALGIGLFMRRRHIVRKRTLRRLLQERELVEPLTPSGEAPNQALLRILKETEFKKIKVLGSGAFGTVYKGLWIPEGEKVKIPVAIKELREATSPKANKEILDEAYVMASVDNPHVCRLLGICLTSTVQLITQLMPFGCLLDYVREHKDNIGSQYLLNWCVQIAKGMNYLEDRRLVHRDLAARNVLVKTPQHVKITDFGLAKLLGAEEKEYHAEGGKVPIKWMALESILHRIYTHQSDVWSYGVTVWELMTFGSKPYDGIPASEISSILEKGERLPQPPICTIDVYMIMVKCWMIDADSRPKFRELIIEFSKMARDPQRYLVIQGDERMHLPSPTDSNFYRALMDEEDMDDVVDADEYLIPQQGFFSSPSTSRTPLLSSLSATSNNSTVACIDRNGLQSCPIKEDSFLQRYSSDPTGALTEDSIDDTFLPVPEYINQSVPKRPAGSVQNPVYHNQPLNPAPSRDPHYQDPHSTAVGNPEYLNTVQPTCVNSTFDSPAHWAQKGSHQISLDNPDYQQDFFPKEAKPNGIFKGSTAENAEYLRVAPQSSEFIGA

With `Fc1ccc(Nc2ncnc3ccc(OCCCN4CCOCC4)cc23)cc1F` [4-(3',4'-difluoroanilino)-6-(3-morpholinopropoxy)quinazoline], the “inhibition of tumour volume” value in assay [1] was “greater than 50%”. Further, the IC50 (as a rule, the concentration at which inhibition is half-maximal) in assay [2] was about 1200 nM.
With `CCN(CC)CCCOc1ccc2ncnc(Nc3ccc(F)c(Cl)c3)c2c1` [4-(3'-chloro-4'-fluoroanilino)-6-(3-diethylaminopropoxy)quinazoline], in assay [1], the “inhibition of tumour volume” value was “greater than 50%”. Further, the half-maximal inhibitory concentration (IC50) in assay [3] was about 3 nM; in assay [2], about 100 nM.
Take `O=CN/C=C/c1cc(O)ccc1O` [erbstatin]: in assay [4], the “growth of carcinoma not expressing EGF receptor tyrosine kinase” value is “without effect on the growth”. Further, the “growth of transplanted human mammary carcinoma” value in assay [5] is recorded as “specifically attenuates the growth”.
